{
  "source": "PubChem BioAssay (NCI)",
  "experiment_in_all_cases": "inhibition of tumour cell growth, NCI panel, 48 h",
  "key": {"786-0 renal": {"test_system": "786-0 renal"}, "A498 renal": {"test_system": "A498 renal"}, "A549 NSCLC": {"test_system": "A549 NSCLC"}, "ACHN renal": {"test_system": "ACHN renal"}, "CAKI-1 renal": {"test_system": "CAKI-1 renal"}, "CCRF-CEM leukemia": {"test_system": "CCRF-CEM leukemia"}, "COLO 205 colon": {"test_system": "COLO 205 colon"}, "DLD-1 colon": {"test_system": "DLD-1 colon"}, "DMS 114 small cell lung": {"test_system": "DMS 114 small cell lung"}, "DMS 273 small cell lung": {"test_system": "DMS 273 small cell lung"}, "EKVX NSCLC": {"test_system": "EKVX NSCLC"}, "HCC-2998 colon": {"test_system": "HCC-2998 colon"}, "HCT-116 colon": {"test_system": "HCT-116 colon"}, "HCT-15 colon": {"test_system": "HCT-15 colon"}, "HL-60(TB) leukemia": {"test_system": "HL-60(TB) leukemia"}, "HOP-18 NSCLC": {"test_system": "HOP-18 NSCLC"}, "HOP-62 NSCLC": {"test_system": "HOP-62 NSCLC"}, "HOP-92 NSCLC": {"test_system": "HOP-92 NSCLC"}, "HT29 colon": {"test_system": "HT29 colon"}, "IGROV1 ovarian": {"test_system": "IGROV1 ovarian"}, "K-562 leukemia": {"test_system": "K-562 leukemia"}, "KM12 colon": {"test_system": "KM12 colon"}, "KM20L2 colon": {"test_system": "KM20L2 colon"}, "LOX IMVI melanoma": {"test_system": "LOX IMVI melanoma"}, "LXFL 529 NSCLC": {"test_system": "LXFL 529 NSCLC"}, "M14 melanoma": {"test_system": "M14 melanoma"}, "M19-MEL melanoma": {"test_system": "M19-MEL melanoma"}, "MALME-3M melanoma": {"test_system": "MALME-3M melanoma"}, "NCI-H226 lung": {"test_system": "NCI-H226 lung"}, "NCI-H23 lung": {"test_system": "NCI-H23 lung"}, "NCI-H460 lung": {"test_system": "NCI-H460 lung"}, "NCI-H522 lung": {"test_system": "NCI-H522 lung"}, "OVCAR-3 ovarian": {"test_system": "OVCAR-3 ovarian"}, "OVCAR-4 ovarian": {"test_system": "OVCAR-4 ovarian"}, "OVCAR-5 ovarian": {"test_system": "OVCAR-5 ovarian"}, "OVCAR-8 ovarian": {"test_system": "OVCAR-8 ovarian"}, "RPMI-8226 leukemia": {"test_system": "RPMI-8226 leukemia"}, "RXF 393 renal": {"test_system": "RXF 393 renal"}, "RXF-631 renal": {"test_system": "RXF-631 renal"}, "SF-268 CNS": {"test_system": "SF-268 CNS"}, "SF-295 CNS": {"test_system": "SF-295 CNS"}, "SF-539 CNS": {"test_system": "SF-539 CNS"}, "SK-MEL-2 melanoma": {"test_system": "SK-MEL-2 melanoma"}, "SK-MEL-28 melanoma": {"test_system": "SK-MEL-28 melanoma"}, "SK-MEL-5 melanoma": {"test_system": "SK-MEL-5 melanoma"}, "SK-OV-3 ovarian": {"test_system": "SK-OV-3 ovarian"}, "SN12C renal": {"test_system": "SN12C renal"}, "SNB-19 CNS": {"test_system": "SNB-19 CNS"}, "SNB-75 CNS": {"test_system": "SNB-75 CNS"}, "SR leukemia": {"test_system": "SR leukemia"}, "SW-620 colon": {"test_system": "SW-620 colon"}, "TK-10 renal": {"test_system": "TK-10 renal"}, "U251 CNS": {"test_system": "U251 CNS"}, "UACC-257 melanoma": {"test_system": "UACC-257 melanoma"}, "UACC-62 melanoma": {"test_system": "UACC-62 melanoma"}, "UO-31 renal": {"test_system": "UO-31 renal"}, "XF 498 CNS": {"test_system": "XF 498 CNS"}},
  "note": "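Cells were grown in 96-well plates and exposed to each compound for 48 hours at five concentrations; endpoints were interpolated linearly between bracketing concentrations, or set to the highest concentration if not reached. TGI is the concentration that stops growth completely.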",
  "data": [
    {"smiles": "CCC1(O)C(=O)OCc2c1cc1n(c2=O)Cc2cc3ccc(CO)cc3nc2-1", "note": "(configuration not stated)", "values": [
      {"measurement": "TGI", "setting": "786-0 renal", "result": 7.51, "unit": "µM"},
      {"measurement": "TGI", "setting": "A498 renal", "result": 24.5, "unit": "µM"},
      {"measurement": "TGI", "setting": "A549 NSCLC", "result": "> 100", "unit": "µM"},
      {"measurement": "TGI", "setting": "ACHN renal", "result": 11, "unit": "µM"},
      {"measurement": "TGI", "setting": "CAKI-1 renal", "result": 23.5, "unit": "µM"},
      {"measurement": "TGI", "setting": "CCRF-CEM leukemia", "result": 0.987, "unit": "µM"},
      {"measurement": "TGI", "setting": "COLO 205 colon", "result": 52.3, "unit": "µM"},
      {"measurement": "TGI", "setting": "DLD-1 colon", "result": "> 100", "unit": "µM"},
      {"measurement": "TGI", "setting": "DMS 114 small cell lung", "result": "> 100", "unit": "µM"},
      {"measurement": "TGI", "setting": "DMS 273 small cell lung", "result": 11.1, "unit": "µM"},
      {"measurement": "TGI", "setting": "EKVX NSCLC", "result": "> 100", "unit": "µM"},
      {"measurement": "TGI", "setting": "HCC-2998 colon", "result": "> 80.2", "unit": "µM"},
      {"measurement": "TGI", "setting": "HCT-116 colon", "result": 31.1, "unit": "µM"},
      {"measurement": "TGI", "setting": "HCT-15 colon", "result": "> 100", "unit": "µM"},
      {"measurement": "TGI", "setting": "HL-60(TB) leukemia", "result": "> 27", "unit": "µM"},
      {"measurement": "TGI", "setting": "HOP-18 NSCLC", "result": "> 93.9", "unit": "µM"},
      {"measurement": "TGI", "setting": "HOP-62 NSCLC", "result": 2.56, "unit": "µM"},
      {"measurement": "TGI", "setting": "HOP-92 NSCLC", "result": "> 87.3", "unit": "µM"},
      {"measurement": "TGI", "setting": "HT29 colon", "result": "> 81.4", "unit": "µM"},
      {"measurement": "TGI", "setting": "IGROV1 ovarian", "result": "> 77.4", "unit": "µM"},
      {"measurement": "TGI", "setting": "K-562 leukemia", "result": "> 100", "unit": "µM"},
      {"measurement": "TGI", "setting": "KM12 colon", "result": "> 100", "unit": "µM"},
      {"measurement": "TGI", "setting": "KM20L2 colon", "result": "> 69.9", "unit": "µM"},
      {"measurement": "TGI", "setting": "LOX IMVI melanoma", "result": 12.5, "unit": "µM"},
      {"measurement": "TGI", "setting": "LXFL 529 NSCLC", "result": "> 100", "unit": "µM"},
      {"measurement": "TGI", "setting": "M14 melanoma", "result": 33.1, "unit": "µM"},
      {"measurement": "TGI", "setting": "M19-MEL melanoma", "result": 54, "unit": "µM"},
      {"measurement": "TGI", "setting": "MALME-3M melanoma", "result": 59.9, "unit": "µM"},
      {"measurement": "TGI", "setting": "NCI-H226 lung", "result": 6.58, "unit": "µM"},
      {"measurement": "TGI", "setting": "NCI-H23 lung", "result": 10.2, "unit": "µM"},
      {"measurement": "TGI", "setting": "NCI-H460 lung", "result": 22.5, "unit": "µM"},
      {"measurement": "TGI", "setting": "NCI-H522 lung", "result": 26.8, "unit": "µM"},
      {"measurement": "TGI", "setting": "OVCAR-3 ovarian", "result": 24.4, "unit": "µM"},
      {"measurement": "TGI", "setting": "OVCAR-4 ovarian", "result": "> 100", "unit": "µM"},
      {"measurement": "TGI", "setting": "OVCAR-5 ovarian", "result": 78.5, "unit": "µM"},
      {"measurement": "TGI", "setting": "OVCAR-8 ovarian", "result": "> 41.3", "unit": "µM"},
      {"measurement": "TGI", "setting": "RPMI-8226 leukemia", "result": "> 37.3", "unit": "µM"},
      {"measurement": "TGI", "setting": "RXF 393 renal", "result": "> 44", "unit": "µM"},
      {"measurement": "TGI", "setting": "RXF-631 renal", "result": "> 100", "unit": "µM"},
      {"measurement": "TGI", "setting": "SF-268 CNS", "result": "> 100", "unit": "µM"},
      {"measurement": "TGI", "setting": "SF-295 CNS", "result": "> 79.3", "unit": "µM"},
      {"measurement": "TGI", "setting": "SF-539 CNS", "result": 4.51, "unit": "µM"},
      {"measurement": "TGI", "setting": "SK-MEL-2 melanoma", "result": 64.5, "unit": "µM"},
      {"measurement": "TGI", "setting": "SK-MEL-28 melanoma", "result": "> 100", "unit": "µM"},
      {"measurement": "TGI", "setting": "SK-MEL-5 melanoma", "result": 11.3, "unit": "µM"},
      {"measurement": "TGI", "setting": "SK-OV-3 ovarian", "result": "> 100", "unit": "µM"},
      {"measurement": "TGI", "setting": "SN12C renal", "result": "> 28.8", "unit": "µM"},
      {"measurement": "TGI", "setting": "SNB-19 CNS", "result": "> 100", "unit": "µM"},
      {"measurement": "TGI", "setting": "SNB-75 CNS", "result": 9.77, "unit": "µM"},
      {"measurement": "TGI", "setting": "SR leukemia", "result": 0.298, "unit": "µM"},
      {"measurement": "TGI", "setting": "SW-620 colon", "result": "> 100", "unit": "µM"},
      {"measurement": "TGI", "setting": "TK-10 renal", "result": "> 100", "unit": "µM"},
      {"measurement": "TGI", "setting": "U251 CNS", "result": 5.04, "unit": "µM"},
      {"measurement": "TGI", "setting": "UACC-257 melanoma", "result": "> 100", "unit": "µM"},
      {"measurement": "TGI", "setting": "UACC-62 melanoma", "result": 7.34, "unit": "µM"},
      {"measurement": "TGI", "setting": "UO-31 renal", "result": 17, "unit": "µM"},
      {"measurement": "TGI", "setting": "XF 498 CNS", "result": 16.8, "unit": "µM"}
    ]}
  ]
}
